Experimental data as given in patent publication US10544130B2, “Metallo-beta-lactamase inhibitors” (priority 2015, dated 2020).

Test system: Pseudomonas aeruginosa PAO1 MB9798 (efflux+, IMP-1)
Conditions: ratio MITC95 PA 9798/MITC95 PA 9799; imipenem at 2 μg/mL
Method in brief: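 Isogenic PAO1 pair (efflux+ MB9798, efflux− MB9799, both IMP-1) tested by microbroth MIC with fixed imipenem and/or ceftazidime, usually at CLSI breakpoint, plus fixed class A/C inhibitor against AmpC. MBL inhibitor titrated; concentration restoring susceptibility recorded and fold difference between strains taken as efflux extent.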

Structure (SMILES)	Efflux ratio
Nc1ccc(-c2ccc(S(=O)(=O)NC[C@H]3CNCCN3)c(S(N)(=O)=O)c2-c2nn[nH]n2)cn1 [Example 315, (R)-4-(6-aminopyridin-3-yl)-N1-(piperazin-2-ylmethyl)-3-(1H-tetrazol-5-yl)benzene-1,2-disulfonamide]	1.00
NCCNS(=O)(=O)c1ccc(-c2cccc3[nH]nnc23)c(-c2nn[nH]n2)c1S(N)(=O)=O [Example 236, N^1-(2-aminoethyl)-4-(1H-benzo[d][1,2,3]triazol-4-yl)-3-(2H-tetrazol-5-yl)benzene-1,2-disulfonamide]	1.00
CC(C)(CN)NS(=O)(=O)c1ccc(-c2cccnc2N)c(-c2nn[nH]n2)c1S(N)(=O)=O [Example 211, N1-(1-amino-2-methylpropan-2-yl)-4-(2-aminopyridin-3-yl)-3-(2H-tetrazol-5-yl)benzene-1,2-disulfonamide]	4.00
Nc1nc2c(-c3ccc(S(=O)(=O)N[C@H]4CNC[C@@H]4O)c(S(N)(=O)=O)c3-c3nnn[nH]3)cccc2[nH]1 [Example 169, 4-(2-amino-1H-benzo[d]imidazol-4-yl)-N^1-((3S,4S)-4-hydroxypyrrolidin-3-yl)-3-(1H-tetrazol-5-yl)benzene-1,2-disulfonamide]	1.00
Cc1ccc(-c2ccc(S(=O)(=O)N[C@@H]3CCNC3)c(S(N)(=O)=O)c2-c2nn[nH]n2)c2nc(N)[nH]c12 [Example 285, (R)-4-(2-amino-7-methyl-1H-benzo[d]imidazol-4-yl)-N1-(pyrrolidin-3-yl)-3-(2H-tetrazol-5-yl)benzene-1,2-disulfonamide]	1.00
NCCNS(=O)(=O)c1ccc(-c2cccc3oc(N)nc23)c(-c2nn[nH]n2)c1S(N)(=O)=O [Example 11, 4-(2-aminobenzo[d]oxazol-4-yl)-N^1-(2-aminoethyl)-3-(2H-tetrazol-5-yl)benzene-1,2-disulfonamide]	1.00
Nc1nc2c(-c3ccc(S(=O)(=O)N[C@H]4CNC[C@H]4N)c(S(N)(=O)=O)c3-c3nn[nH]n3)cccc2[nH]1 [Example 241, 4-(2-amino-1H-benzo[d]imidazol-4-yl)-N^1-((3S,4R)-4-aminopyrrolidin-3-yl)-3-(2H-tetrazol-5-yl)benzene-1,2-disulfonamide]	0.83
C[C@H](CN)NS(=O)(=O)c1ccc(-c2cccnc2N)c(-c2nn[nH]n2)c1S(N)(=O)=O [Example 212, (R)-N1-(1-aminopropan-2-yl)-4-(2-aminopyridin-3-yl)-3-(2H-tetrazol-5-yl)benzene-1,2-disulfonamide]	1.00
Nc1nc2c(-c3ccc(S(=O)(=O)NCCC(N)C(F)F)c(S(N)(=O)=O)c3-c3nnn[nH]3)cccc2s1.O=CO (stereo not shown) [Example 124, 4-(4-(2-aminobenzo[d]thiazol-4-yl)-2-sulfamoyl-3-(1H-tetrazol-5-yl)phenylsulfonamido)-1,1-difluorobutan-2-aminium formate]	4.00
Nc1nc2c(-c3ccc(S(=O)(=O)N[C@H]4CN[C@@H](CO)C4)c(S(N)(=O)=O)c3-c3nnn[nH]3)cccc2s1 [Example 81, 4-(2-amino-1,3-benzothiazol-4-yl)-N1-[(3R,5R)-5-(hydroxymethyl)pyrrolidin-3-yl]-3-(1H-tetrazol-5-yl)benzene-1,2-disulfonamide]	0.50
CN(C1CCS(=O)(=O)C1)S(=O)(=O)c1ccc(-c2cccc3sc(N)nc23)c(-c2nnn[nH]2)c1S(N)(=O)=O (stereo not shown) [Example 41, 4-(2-amino-1,3-benzothiazol-4-yl)-N^1-(1,1-dioxidotetrahydrothiophen-3-yl)-N~1~-methyl-3-(1H-tetrazol-5-yl)benzene-1,2-disulfonamide]	8.00
CN(C)C1CCN(S(=O)(=O)c2ccc(-c3cccc4sc(N)nc34)c(-c3nnn[nH]3)c2S(N)(=O)=O)CC1 [Example 26, 3-(2-amino-1,3-benzothiazol-4-yl)-6-{[4-(dimethylamino)piperidin-1-yl]sulfonyl}-2-(1H-tetrazol-5-yl)benzenesulfonamide]	2.00
C[C@H](CN)NS(=O)(=O)c1ccc(-c2cccc(N)n2)c(-c2nn[nH]n2)c1S(N)(=O)=O [Example 318, (R)—N1-(1-aminopropan-2-yl)-4-(6-aminopyridin-2-yl)-3-(2H-tetrazol-5-yl) benzene-1,2-disulfonamide]	1.00
Cn1c(N)nc2c(-c3ccc(S(N)(=O)=O)c(S(N)(=O)=O)c3-c3nn[nH]n3)cccc21 [Example 5, 4-(2-amino-1-methyl-1H-benzo[d]imidazol-4-yl)-3-(2H-tetrazol-5-yl)benzene-1,2-disulfonamide]	2.00
NCCNS(=O)(=O)c1ccc(-c2cccc(C(=O)NC[C@H](N)CO)c2N)c(-c2nn[nH]n2)c1S(N)(=O)=O [Example 333, (S)-2-amino-N-(2-amino-3-hydroxypropyl)-4′-(N-(2-aminoethyl)sulfamoyl)-3′-sulfamoyl-2′-(2H-tetrazol-5-yl)-[1,1′-biphenyl]-3-carboxamide]	1.00
Nc1nc2c(-c3ccc(S(=O)(=O)N[C@@]4(CO)CCNC4)c(S(N)(=O)=O)c3-c3nnn[nH]3)cccc2[nH]1 [Example 176, (S)-4-(2-amino-1H-benzo[d]imidazol-4-yl)-N1-(3-(hydroxymethyl)pyrrolidin-3-yl)-3-(1H-tetrazol-5-yl)benzene-1,2-disulfonamide]	1.00
NCCNS(=O)(=O)c1ccc(-c2cccc3[nH]cnc23)c(-c2nn[nH]n2)c1S(N)(=O)=O [Example 199, N^1-(2-aminoethyl)-4-(1H-benzo[d]imidazol-4-yl)-3-(2H-tetrazol-5-yl)benzene-1,2-disulfonamide]	0.55
Nc1nc2c(-c3ccc(S(=O)(=O)N4CC[C@H](N)C4)c(S(N)(=O)=O)c3-c3nnn[nH]3)cccc2s1 [Example 61, 3-(2-amino-1,3-benzothiazol-4-yl)-6-{[(3S)-3-aminopyrrolidin-1-yl]sulfonyl}-2-(1H-tetrazol-5-yl)benzenesulfonamide]	1.00
Nc1nc2c(-c3ccc(S(=O)(=O)NCC(=O)O)c(S(N)(=O)=O)c3-c3nn[nH]n3)cccc2s1 [Example 153, ((4-(2-aminobenzo[d]thiazol-4-yl)-2-sulfamoyl-3-(2H-tetrazol-5-yl)phenyl)sulfonyl)glycine]	1.00
C[C@H](N)CNS(=O)(=O)c1ccc(-c2cccc3sc(N)nc23)c(-c2nnn[nH]2)c1S(N)(=O)=O.O=CO [Example 127, (S)-4-(2-aminobenzo[d]thiazol-4-yl)-N1-(2-aminopropyl)-3-(1H-tetrazol-5-yl)benzene-1,2-disulfonamide, formate salt]	1.00
Nc1cncc(-c2ccc(S(=O)(=O)N[C@@H]3CCNC3)c(S(N)(=O)=O)c2-c2nn[nH]n2)c1 [Example 219, (R)-4-(5-aminopyridin-3-yl)-N1-(pyrrolidin-3-yl)-3-(2H-tetrazol-5-yl)benzene-1,2-disulfonamide]	1.00
Nc1nc2c(-c3ccc(S(=O)(=O)NC4CCS(=O)(=O)CC4)c(S(N)(=O)=O)c3-c3nnn[nH]3)cccc2s1 [Example 14, 4-(2-amino-1,3-benzothiazol-4-yl)-N1-(1,1-dioxidotetrahydro-2H-thiopyran-4-yl)-3-(1H-tetrazol-5-yl)benzene-1,2-disulfonamide]	1.00
